Tested on: recurrent glioblastoma
Assay: Treatment of a patient with recurrent glioblastoma with temozolomide plus PTK787
Assay type: in vivo, human
Settings: one patient with histologically confirmed recurrent glioblastoma; temozolomide 50 mg/m^2 daily for 5 consecutive days every 28 days in addition to continuous daily dose of 1000 mg PTK787; observed during the third cycle
Description: Suitable clinical studies are, for example, randomized, double-blind, placebo-controlled, parallel studies in patients with recurrent glioblastoma, but also dose escalation studies. […] Tumor assessment in the form of dynamic contrast-enhanced MRI is also a suitable approach to determine the effect of the COMBINATION OF THE INVENTION. In a suitable study design, patients are receiving, for example, temozolomide in a dosage of 50 to 250 mg/m^2 daily, for example, 200 mg/m^2 daily, for 5 consecutive days every 28 days or placebo in addition to a continuous daily dose of 500 to 2000 mg of a compound of formula I, e.g., 500, 1000, 1500 or 2000 mg of PTK787 or placebo.

With `Clc1ccc(Nc2nnc(Cc3ccncc3)c3ccccc23)cc1` [PTK787] the “disease status observed under treatment” value was “stable disease”.
